Where two headings read alike, the source gives them in different places. Bounds are passed on as bounds.

The target of assay [1] is T1, CDK12 (Homo sapiens, UniProt Q9NYV4). The assay is described as follows: CDK12 kinase inhibitory activity assay (33P-ATP filter binding). In kind it is biochemical. The procedure, abridged:
(§1)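 Radiometric filter-binding read-out: after 20 min compound–enzyme/substrate pre-incubation across 9 concentrations, reaction started with ^33P-γ-ATP and run 120 min at room temperature. Filter-bound ^33P-substrate measured after 0.75 % phosphoric acid washes; remaining activity versus DMSO gives IC50.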

Assay [2] deals with CDK13 (Homo sapiens, UniProt Q14004). The assay is described as follows: CDK13 kinase inhibitory activity assay (33P-ATP filter binding). It is filed as biochemical. In a few lines:
as §1

Assay [3] relates to MDA-MB-231 breast cancer cells. The assay is described as follows: Proliferation inhibitory activity assay against MDA-MB-231 breast cancer cells. In kind it is cell-based. Particulars: Homo sapiens, 72 hours, CellTiter Glo, relative IC50. In a few lines: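 Cells grown in L-15 with 10% FBS at 37 °C, 0% CO2, then exposed next day to compounds at 9 concentrations (DMSO vehicle) for 72 h. Viability read by CellTiter Glo luminescence; relative IC50 from dose-response curve fit.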
A general note: In ATP-based viability assays light output follows the ATP content of the culture.

Assay [4] deals with CDK1 (Homo sapiens, UniProt P06493). The assay is described as follows: CDK1 kinase inhibitory activity assay and selectivity over CDK12. In kind it is biochemical. Particulars: for IC50: kinase reaction 120 minutes, 33P-gamma-ATP; for CDK1/CDK12: ratio of CDK1 IC50 to CDK12 IC50. The procedure:
(§2) Before initiating the CDK1 and CDK2 kinase reactions, each Example compound was dissolved and diluted in DMSO as a solvent across 9 concentration ranges at room temperature. The diluted solutions were then incubated with a mixture of kinase and substrate (and cofactors, if required) for 20 minutes. Next, radioisotope-labeled ATP (^33P-gamma-ATP) was added to proceed with the kinase reaction at room temperature for 120 minutes. After the reaction was completed, the reaction mixture was transferred to a filter paper that binds the radioisotope-labeled catalytic product (^33P-substrate). Unreacted ^33P-ATP was removed by washing with 0.75 % phosphoric acid, and then the radioactive phosphorylated substrate remaining on the filter paper was measured. Kinase activity data were expressed as a percentage of the kinase activity remaining in the test sample compared to a DMSO control group. The half-maximal inhibitory concentration (IC50) for each kinase was calculated using Prism software.
(§3) The CDK1 and CDK2 kinase inhibitory activities of the Example compounds measured by the above method were evaluated according to the following criteria, and the results are presented in Table 14.

The target of assay [5] is CDK2 (Homo sapiens, UniProt P24941). Kind of assay: CDK2 kinase inhibitory activity assay and selectivity over CDK12. In kind it is biochemical. Particulars: for IC50: kinase reaction 120 minutes, 33P-gamma-ATP; for CDK2/CDK12: ratio of CDK2 IC50 to CDK12 IC50. The procedure:
as §2, §3

Assay [6] has as its target T1, CDK12. Kind of assay: Cellular CDK12 inhibitory activity assay (Ser2 phosphorylation of RNA polymerase II subunit B1 CTD in MDA-MB-231 cells). It is filed as cell-based. Set-up: using MDA-MB-231 breast cancer cells; endogenous in cells; host or cells: MDA-MB-231. The note with it: MDA-MB-231 cells, 6 hours treatment; read-out: pRpbl CTD S2 IC50. The procedure, abridged:
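MDA-MB-231 cells in L-15 with 10 % FBS were treated with compound at 9 concentrations for 6 h at 37 °C, 0 % CO2. In-Cell Western read phospho-Ser2 and total RNA polymerase II CTD on a Li-COR Odyssey; IC50 from 4-parameter dose-response fit.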

[7] abbreviates: kinase reaction 120 minutes, 33P-gamma-ATP, read-out: CDK12 IC50.
The mark [8] stands for this setting: kinase reaction 120 minutes, 33P-gamma-ATP, read-out: CDK13 IC50.

Chain of CDK13 (Q14004 whole entry, species assumed): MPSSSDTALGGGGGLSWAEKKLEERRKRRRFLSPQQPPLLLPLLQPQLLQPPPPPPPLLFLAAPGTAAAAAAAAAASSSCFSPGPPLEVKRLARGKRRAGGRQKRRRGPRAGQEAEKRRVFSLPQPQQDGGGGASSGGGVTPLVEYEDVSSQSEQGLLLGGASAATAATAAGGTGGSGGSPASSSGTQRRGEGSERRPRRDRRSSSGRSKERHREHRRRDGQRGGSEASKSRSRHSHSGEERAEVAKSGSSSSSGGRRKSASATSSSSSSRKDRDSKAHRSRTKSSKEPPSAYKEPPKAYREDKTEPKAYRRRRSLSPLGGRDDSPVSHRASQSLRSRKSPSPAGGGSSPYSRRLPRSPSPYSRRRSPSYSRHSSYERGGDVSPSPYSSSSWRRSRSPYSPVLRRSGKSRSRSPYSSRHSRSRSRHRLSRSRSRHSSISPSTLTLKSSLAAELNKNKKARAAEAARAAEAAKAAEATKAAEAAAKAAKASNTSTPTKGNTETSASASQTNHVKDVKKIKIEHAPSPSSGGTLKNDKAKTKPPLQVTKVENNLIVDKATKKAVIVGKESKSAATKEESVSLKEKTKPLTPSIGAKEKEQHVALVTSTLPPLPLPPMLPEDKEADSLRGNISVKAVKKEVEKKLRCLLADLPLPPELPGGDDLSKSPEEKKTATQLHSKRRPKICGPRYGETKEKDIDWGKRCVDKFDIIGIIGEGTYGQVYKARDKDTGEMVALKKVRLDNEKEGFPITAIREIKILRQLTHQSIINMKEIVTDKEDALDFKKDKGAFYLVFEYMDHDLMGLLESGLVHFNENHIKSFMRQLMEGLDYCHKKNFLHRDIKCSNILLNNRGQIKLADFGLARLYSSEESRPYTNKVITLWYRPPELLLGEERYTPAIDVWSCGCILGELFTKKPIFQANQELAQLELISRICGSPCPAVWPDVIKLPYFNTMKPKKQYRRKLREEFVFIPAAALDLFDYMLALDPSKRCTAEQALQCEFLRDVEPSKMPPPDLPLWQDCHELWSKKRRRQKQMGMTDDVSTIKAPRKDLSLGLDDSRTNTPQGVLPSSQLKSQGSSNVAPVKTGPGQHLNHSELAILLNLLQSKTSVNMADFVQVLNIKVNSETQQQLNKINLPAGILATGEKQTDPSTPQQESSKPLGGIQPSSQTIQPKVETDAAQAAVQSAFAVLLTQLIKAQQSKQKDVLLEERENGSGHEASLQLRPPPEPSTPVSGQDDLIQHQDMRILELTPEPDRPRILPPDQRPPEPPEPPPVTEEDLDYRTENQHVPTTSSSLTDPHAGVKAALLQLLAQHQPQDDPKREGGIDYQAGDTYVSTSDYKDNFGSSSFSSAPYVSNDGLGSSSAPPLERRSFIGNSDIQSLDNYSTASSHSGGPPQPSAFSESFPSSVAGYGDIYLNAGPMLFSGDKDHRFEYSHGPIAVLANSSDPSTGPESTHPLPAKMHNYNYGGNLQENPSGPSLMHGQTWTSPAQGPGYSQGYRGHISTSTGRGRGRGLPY
Chain of CDK13 (O75909 whole entry partner, species assumed): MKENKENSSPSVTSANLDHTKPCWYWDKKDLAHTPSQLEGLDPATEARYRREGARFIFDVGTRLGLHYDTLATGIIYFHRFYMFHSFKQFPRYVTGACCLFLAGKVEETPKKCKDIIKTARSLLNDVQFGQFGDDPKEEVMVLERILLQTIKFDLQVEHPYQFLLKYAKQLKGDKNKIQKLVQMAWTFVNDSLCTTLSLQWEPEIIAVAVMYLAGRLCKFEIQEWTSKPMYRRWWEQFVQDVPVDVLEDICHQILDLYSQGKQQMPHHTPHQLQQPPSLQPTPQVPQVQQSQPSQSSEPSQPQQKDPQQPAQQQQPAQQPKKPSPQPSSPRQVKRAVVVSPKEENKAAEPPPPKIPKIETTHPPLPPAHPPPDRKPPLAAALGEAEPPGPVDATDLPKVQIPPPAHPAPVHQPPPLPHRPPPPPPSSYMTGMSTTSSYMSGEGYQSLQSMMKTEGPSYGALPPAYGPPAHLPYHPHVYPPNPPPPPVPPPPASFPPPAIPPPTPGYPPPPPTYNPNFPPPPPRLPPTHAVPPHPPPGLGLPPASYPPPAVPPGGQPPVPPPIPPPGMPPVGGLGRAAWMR
Chain of CDK1 (P06493 whole entry, species assumed): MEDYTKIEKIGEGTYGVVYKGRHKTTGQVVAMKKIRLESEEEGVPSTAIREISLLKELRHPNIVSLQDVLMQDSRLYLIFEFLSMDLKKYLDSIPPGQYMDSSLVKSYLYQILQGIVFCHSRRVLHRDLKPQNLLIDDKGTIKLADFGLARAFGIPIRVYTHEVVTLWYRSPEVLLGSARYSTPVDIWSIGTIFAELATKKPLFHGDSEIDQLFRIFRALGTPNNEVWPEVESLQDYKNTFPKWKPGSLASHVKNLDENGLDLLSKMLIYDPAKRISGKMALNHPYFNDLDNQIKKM
Chain of CDK1 (P14635 whole entry partner, species assumed): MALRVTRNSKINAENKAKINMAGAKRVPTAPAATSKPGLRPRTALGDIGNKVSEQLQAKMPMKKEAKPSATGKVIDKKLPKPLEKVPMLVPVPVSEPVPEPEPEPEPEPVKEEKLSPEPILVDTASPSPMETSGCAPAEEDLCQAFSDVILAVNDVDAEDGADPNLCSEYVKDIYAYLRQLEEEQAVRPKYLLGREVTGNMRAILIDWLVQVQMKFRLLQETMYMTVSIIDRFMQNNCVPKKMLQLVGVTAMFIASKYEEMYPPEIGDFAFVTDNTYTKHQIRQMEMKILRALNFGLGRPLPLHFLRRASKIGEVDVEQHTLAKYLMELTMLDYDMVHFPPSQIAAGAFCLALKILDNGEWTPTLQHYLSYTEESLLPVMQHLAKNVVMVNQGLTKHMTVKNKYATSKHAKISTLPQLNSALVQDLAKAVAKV
T1 sequence (Q9NYV4 whole entry, species assumed): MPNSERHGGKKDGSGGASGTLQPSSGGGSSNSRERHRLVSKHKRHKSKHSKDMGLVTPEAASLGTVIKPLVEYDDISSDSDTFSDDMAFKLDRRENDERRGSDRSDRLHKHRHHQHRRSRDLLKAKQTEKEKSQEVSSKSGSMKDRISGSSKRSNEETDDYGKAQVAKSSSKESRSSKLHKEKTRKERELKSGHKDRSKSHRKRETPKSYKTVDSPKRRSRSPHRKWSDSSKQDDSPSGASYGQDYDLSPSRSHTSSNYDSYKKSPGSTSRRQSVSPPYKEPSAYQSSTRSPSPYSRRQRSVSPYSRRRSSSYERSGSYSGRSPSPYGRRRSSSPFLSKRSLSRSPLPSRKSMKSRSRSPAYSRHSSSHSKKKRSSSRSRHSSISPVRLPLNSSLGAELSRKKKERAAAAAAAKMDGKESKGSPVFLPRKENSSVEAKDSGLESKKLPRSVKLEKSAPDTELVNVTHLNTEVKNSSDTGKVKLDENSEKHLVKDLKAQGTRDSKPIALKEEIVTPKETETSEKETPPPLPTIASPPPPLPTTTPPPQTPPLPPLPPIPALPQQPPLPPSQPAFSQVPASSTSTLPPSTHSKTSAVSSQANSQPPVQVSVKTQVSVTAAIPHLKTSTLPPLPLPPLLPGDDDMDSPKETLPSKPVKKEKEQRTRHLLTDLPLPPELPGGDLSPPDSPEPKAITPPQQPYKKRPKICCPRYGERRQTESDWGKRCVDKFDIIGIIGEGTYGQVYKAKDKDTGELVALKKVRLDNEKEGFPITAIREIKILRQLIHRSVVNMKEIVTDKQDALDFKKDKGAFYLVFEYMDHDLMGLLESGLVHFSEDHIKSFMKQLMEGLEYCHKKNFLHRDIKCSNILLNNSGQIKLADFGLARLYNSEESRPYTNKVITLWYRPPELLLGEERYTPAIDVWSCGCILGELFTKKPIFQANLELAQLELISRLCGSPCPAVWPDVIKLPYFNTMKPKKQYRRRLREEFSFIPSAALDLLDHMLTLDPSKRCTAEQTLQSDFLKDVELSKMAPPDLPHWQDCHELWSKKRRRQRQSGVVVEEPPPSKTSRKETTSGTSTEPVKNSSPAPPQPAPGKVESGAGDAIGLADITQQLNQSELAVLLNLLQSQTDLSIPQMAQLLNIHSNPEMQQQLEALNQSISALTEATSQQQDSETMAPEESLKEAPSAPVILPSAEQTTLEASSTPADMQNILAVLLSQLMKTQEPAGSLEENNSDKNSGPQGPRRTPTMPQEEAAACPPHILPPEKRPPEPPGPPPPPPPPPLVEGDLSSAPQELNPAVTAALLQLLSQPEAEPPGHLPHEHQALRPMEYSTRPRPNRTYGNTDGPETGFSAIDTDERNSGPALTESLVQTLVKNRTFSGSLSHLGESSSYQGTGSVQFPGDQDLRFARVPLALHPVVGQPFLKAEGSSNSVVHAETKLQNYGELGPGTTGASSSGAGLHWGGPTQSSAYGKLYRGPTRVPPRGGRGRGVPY
T1 sequence (O75909 whole entry partner, species assumed): as the sequence (O75909 whole entry partner, species assumed) above

The IC50 is the concentration that inhibits the measured activity by half. Consider `Cc1cc2nc(CNc3cc(N4CCOCC4)nn4c(C(F)(F)F)cnc34)[nH]c2cc1C` [Example 72, N-((5,6-dimethyl-1H-benzo[d]imidazol-2-yl)methyl)-6-morpholino-3-(trifluoromethyl)imidazo[1,2-b]pyridazin-8-amine], for which the IC50 is under 100 nM in assay [1] (setting [7]); under 100 nM in assay [2] (setting [8]); at most 50 nM in assay [3]; over 1000 nM in assay [4]; over 1000 nM in assay [5]; under 300 nM in assay [6]. For the same compound, in assay [4], the CDK1/CDK12 entry was “A (CDK1/CDK12 or CDK2/CDK12 > 500-fold)”. Moreover, the CDK2/CDK12 entry in assay [5] is recorded as “A (CDK1/CDK12 or CDK2/CDK12 > 500-fold)”.

On to `OC1CC2CCC(C1)N2c1cc(NCc2nc3ccc(F)c(F)c3[nH]2)c2ncc(C(F)(F)F)n2n1` (stereo not shown) [Example 14, 8-(8-(((6,7-difluoro-1H-benzo[d]imidazol-2-yl)methyl)amino)-3-(trifluoromethyl)imidazo[1,2-b]pyridazin-6-yl)-8-azabicyclo[3.2.1]octan-3-ol], for which the IC50 is 100 to 500 nM in assay [1] (setting [7]); under 100 nM in assay [2] (setting [8]); at most 50 nM in assay [3]; over 1000 nM in assay [4]; 100 to 1000 nM in assay [5]; under 300 nM in assay [6]. Also, the CDK1/CDK12 result in assay [4] is recorded as “C (CDK1/CDK12 or CDK2/CDK12 ≤ 100-fold)”. The CDK2/CDK12 result in assay [5] is on record as “C (CDK1/CDK12 or CDK2/CDK12 ≤ 100-fold)”.

For `Fc1ccc2[nH]c(CNc3cc(N4CCOCC4)nn4c(C(F)(F)F)cnc34)nc2c1` [Example 77, N-((5-fluoro-1H-benzo[d]imidazol-2-yl)methyl)-6-morpholino-3-(trifluoromethyl)imidazo[1,2-b]pyridazin-8-amine], the IC50 in assay [1] (setting [7]) was under 100 nM; in assay [2] (setting [8]) it was under 100 nM; in assay [3], at most 50 nM; in assay [4], over 1000 nM; in assay [5], over 1000 nM; in assay [6] it was under 300 nM. The CDK1/CDK12 entry in assay [4] is listed as “A (CDK1/CDK12 or CDK2/CDK12 > 500-fold)”. The CDK2/CDK12 entry in assay [5] is “B (100-fold < CDK1/CDK12 or CDK2/CDK12 ≤ 500-fold)”.

Turning to `N#CC1CCN(c2cc(NCc3nc4cc(Cl)c(Cl)cc4[nH]3)c3ncc(C(F)(F)F)n3n2)CC1` [Example 44, 1-(8-(((5,6-dichloro-1H-benzo[d]imidazol-2-yl)methyl)amino)-3-(trifluoromethyl)imidazo[1,2-b]pyridazin-6-yl)piperidine-4-carbonitrile], the IC50 was 100 to 500 nM in assay [1] (setting [7]); 100 to 500 nM in assay [2] (setting [8]); at most 50 nM in assay [3]; over 1000 nM in assay [4]; over 1000 nM in assay [5]; under 300 nM in assay [6].

Consider `Fc1ccc2nc(CNc3cc(N4CCOCC4)nn4c(C5CC5)cnc34)[nH]c2c1F` [Example 23, 3-cyclopropyl-N-((6,7-difluoro-lH-benzo[d]imidazol-2-yl)methyl)-6-morpholinoimidazo[1,2-b]pyridazin-8-amine], for which the IC50 in assay [1] is 100 to 500 nM; in assay [2] (setting [8]), under 100 nM; in assay [3], 50 to 500 nM; in assay [4], over 1000 nM; in assay [5], over 1000 nM; in assay [6], 300 to 3000 nM.

Consider `N#CC1(O)CN(c2cc(NCc3nc4cc(Cl)c(Cl)cc4[nH]3)c3ncc(C(F)(F)F)n3n2)C1` [Example 59, 1-(8-(((5,6-dichloro-1H-benzo[d]imidazol-2-yl)methyl)amino)-3-(trifluoromethyl)imidazo[1,2-b]pyridazin-6-yl)-3-hydroxyazetidine-3-carbonitrile], for which the IC50 in assay [1] (setting [7]) was 100 to 500 nM; in assay [2], 100 to 500 nM; in assay [3], at most 50 nM; in assay [6], under 300 nM.

On to `FC(F)(F)c1ccc2[nH]c(CNc3cc(N4CCOCC4)nn4c(C(F)(F)F)cnc34)nc2c1` [Example 78, 6-morpholino-3-(trifluoromethyl)-N-((5-(trifluoromethyl)-1H-benzo[d]imidazol-2-yl)methyl)imidazo[1,2-b]pyridazin-8-amine], for which the IC50 in assay [1] (setting [7]) is under 100 nM; in assay [2] (setting [8]) it was under 100 nM; in assay [3], 50 to 500 nM; in assay [6], 300 to 3000 nM.

Turning to `FC(F)(F)c1cnc2c(NCc3nc4cc(Cl)c(Cl)cc4[nH]3)cc(N3CC4CC(C3)O4)nn12` [Example 32], the IC50 in assay [1] (read-out: CDK12 IC50, kinase reaction 120 minutes, 33P-gamma-ATP) was 100 to 500 nM; in assay [2] (setting [8]), 100 to 500 nM; in assay [3], at most 50 nM; in assay [6] it was under 300 nM.

Regarding `CC#Cc1cnc2c(NCc3nc4ccc(F)c(F)c4[nH]3)cc(-c3cnc(N)nc3)nn12` [Example 20, 6-(2-aminopyrimidin-5-yl)-N-((6,7-difluoro-1H-benzo[d]imidazol-2-yl)methyl)-3-(prop-1-yn-1-yl)imidazo[1,2-b]pyridazin-8-amine], the IC50 is over 500 nM in assay [1] (setting [7]), 100 to 500 nM in assay [2] (setting [8]), 50 to 500 nM in assay [3] and 300 to 3000 nM in assay [6].

For the compound `CN1C2CC1CN(c1cc(NCc3nc4cc(Cl)c(Cl)cc4[nH]3)c3ncc(C(F)(F)F)n3n1)C2` [Example 98, N-((5,6-dichloro-1H-benzo[d]imidazol-2-yl)methyl)-6-(6-methyl-3,6-diazabicyclo[3.1.1]heptan-3-yl)-3-(trifluoromethyl)imidazo[1,2-b]pyridazin-8-amine], the IC50 in assay [1] (setting [7]) was under 100 nM; in assay [2] (setting [8]), under 100 nM; in assay [3] it was at most 50 nM; in assay [6], under 300 nM.

Turning to `FC(F)(F)c1cnc2c(NCc3nc4cc(Cl)c(Cl)cc4[nH]3)cc(N3C4CCC3CNC4)nn12` [Example 95, 6-(3,8-diazabicyclo[3.2.1]octan-8-yl)-N-((5,6-dichloro-1H-benzo[d]imidazol-2-yl)methyl)-3-(trifluoromethyl)imidazo[1,2-b]pyridazin-8-amine], the IC50 in assay [1] (setting [7]) was under 100 nM; in assay [2] (setting [8]) it was under 100 nM; in assay [3], at most 50 nM; in assay [6] it was under 300 nM.

Turning to `Fc1cc2nc(CNc3cc(N4CCOCC4)nn4c(C(F)(F)F)cnc34)[nH]c2cc1F` [Example 70, N-((5,6-difluoro-1H-benzo[d]imidazol-2-yl)methyl)-6-morpholino-3-(trifluoromethyl)imidazo[1,2-b]pyridazin-8-amine], the IC50 in assay [1] (setting [7]) was under 100 nM; in assay [2] (setting [8]), under 100 nM; in assay [3] it was at most 50 nM; in assay [6], under 300 nM.

In the case of `FC(F)(F)c1cnc2c(NCc3nc4cc(Cl)c(Cl)cc4s3)cc(N3CCOCC3)nn12` [Example 93, N-((5,6-dichlorobenzo[d]thiazol-2-yl)methyl)-6-morpholino-3-(trifluoromethyl)imidazo[1,2-b]pyridazin-8-amine], the IC50 in assay [1] (setting [7]) was over 500 nM; in assay [2] (setting [8]), over 500 nM; in assay [3], 50 to 500 nM; in assay [6] it was 300 to 3000 nM.

On to `O=C(O)C1CN(c2cc(NCc3nc4cc(Cl)c(Cl)cc4[nH]3)c3ncc(C(F)(F)F)n3n2)C1` [Example 64, 1-(8-(((5,6-dichloro-1H-benzo[d]imidazol-2-yl)methyl)amino)-3-(trifluoromethyl)imidazo[1,2-b]pyridazin-6-yl)azetidine-3-carboxylic acid], for which the IC50 in assay [1] (setting [7]) was 100 to 500 nM; in assay [2] (setting [8]) it was under 100 nM; in assay [3], over 500 nM; in assay [6], over 3000 nM.

In the case of `Fc1ccc2nc(CNc3cc(N4CCOCC4)nn4c(C(F)(F)F)cnc34)[nH]c2c1F` [Example 6, N-((6,7-difluoro-1H-benzo[d]imidazol-2-yl)methyl)-6-morpholino-3-(trifluoromethyl)imidazo[1,2-b]pyridazin-8-amine], the IC50 in assay [1] (setting [7]) was under 100 nM; in assay [2] (setting [8]) it was under 100 nM; in assay [3], at most 50 nM; in assay [6], under 300 nM.

Values taken from patent EP4813991A1 (iLeadBMS Co., Ltd., priority 2023, dated 2025).
